# Source: US5639782A, “Neolignan derivatives as platelet activating factor receptor antagonists and 5-lipoxygenase inhibitors” (Center for Innovative Technology, priority 1994, dated 1997)
# “Also recorded” adds a separate entry of the source. Like-named read-outs stand apart in the source and are kept apart here.
# Columns and labels:
# [1] = system: PAF receptor; conditions: literature report; cited from earlier work
# [2] = system: PAF induced platelet aggregation (human platelets); experiment: PAF induced platelet aggregation assay; format: cell-based; conditions: for PAF antagonist activity (in words): in vitro
# Experimental: In vitro experiments have been conducted to determine the PAF and 5-lipoxygenase inhibitory activity of a variety of synthesized, neolignan derivative compounds. In particular, the novel compounds are either 2,4-diaryl-1,3-dithiolanes or futoenone derivatives. PAF antagonist activity was determined according to the method of Shen et al., in Methods of Ezymology, Vol. 187, 447-449 (1990), and that article is herein incorporated by reference. The 5-lipoxygenase inhibitory activity was determined according to an assay discussed below.
# The following outlines a platelet aggregation assay procedure. Blood is obtained from human volunteers who have not ingested aspirin or steroid drugs for ten days and is stored with a 3.8% trisodium citrate anticoagulant. Heparin is not used as the anticoagulant since it interferes with platelet aggregation. Citrated blood is centrifuged at 220 g for 10 min. at room temperature to obtain platelet-rich plasma (PRP). The platelet count is determined and is adjusted to […]. Platelet-poor plasma (PPP) is prepared by centrifuging PRP at 1000 g for 20 min. to pelletize the platelets. PPP is used to calibrate the aggregometer. Washed platelet suspension (WPS) is prepared from PRP by underlayering the latter with Ficoll-Paque (9:2, v/v) and centrifuging at 750 g for 15 min. at room temperature. The platelets form a band between the plasma and the separation medium and are carefully collected and suspended in Tyrode's solution (in mM: NaCl, 137; KCl, 2.7; NAHCO3, 11.9; NaH2 -PO4, 0.42; MgCl2, 1.0; CaCl2, 1.0; HEPES, 5.0; and dextrose, 1 g/liter, with 0.25% BSA, w/v, pH 7.4). Prostacyclin (PGI2) (1 ng/ml) can be added to the suspension to prevent platelet activation; however, it should be understood that the inhibitory activity of PGI2 disappears completely 10 min. from the time of addition at room temperature. The suspension is then spun at 1000 g for 10 min. and the pellet is resuspended in Tyrode's buffer for platelet aggregation. The suspensions are maintained at 37° C. and stirred constantly at 1000 revolutions per min (rpm). A known amount of PAF, such as 0.11 μM PAF, is added to the suspension three to five minutes after the addition of the potential PAF antagonists (the synthesized compounds). […] To obtain the IC50 value, varying concentrations of a potential antagonist need to be added to the test suspensions with the percentage inhibition being determined for each concentration of the antagonist, and the IC50 value is obtained from a plot of the percentage inhibition versus concentration of the antagonist.
# [3] = PAF induced platelet aggregation
structure (smiles),measurement,setting,value
"COc1cc(C2CCC(c3cc(OC)c(OC)c(OC)c3)O2)cc(OC)c1OC [L-652,731]",PAF receptor antagonism (in words),[1],potent PAF receptor antagonists
COc1cc(C2CSC(c3cc(OC)c(OC)c(OC)c3)O2)cc(OC)c1OC (stereo not shown) [oxathiolane (F')],PAF antagonist activity (in words),[2]; [3],much weaker antagonist of PAF-induced platelet aggregation than the corresponding dithiolane compound
C=CCC1=C[C@@]2(OC)C(=CC1=O)O[C@H](c1ccc(OC)c(OC)c1)[C@H]2C [kadsurenone],PAF receptor antagonism (in words),[1],"potent, specific and competitive inhibitor of PAF at the receptor level"
"CCCOc1c(OC)cc(C2CCC(c3cc(OC)c(OC)c(OC)c3)O2)cc1S(C)(=O)=O [L-659,989]",PAF receptor antagonism (in words),[1],potent PAF receptor antagonists
COC1=C[C@]23C[C@H](C[C@H](c4ccc5c(c4)OCO5)[C@H]2C)OC3=CC1=O [futoenone],IC50,"[2]; human platelet assay in PRP, 0.1 μM PAF, read-out: IC50 value for platelet aggregation induced by 0.1 μM PAF",~13.6 µM
same,PAF antagonist activity (in words),[2]; [3],posesses PAF antagonist activity; also recorded: potent PAF antagonist activity
"COc1cc(C2CSC(c3cc(OC)c(OC)c(OC)c3)S2)cc(OC)c1OC (stereo not drawn) [compound 1, Cis and trans-2,4-bis-(3,4,5-trimethoxyphenyl)-1,3-dithiolane]",IC50,"[2]; Homo sapiens, PAF induced platelet aggregation, read-out: IC50 value, PAF-induced platelet aggregation",< 1 µM
